Laboratory results published in patent publication US20260070945A1, “MACROCYCLIC IMMUNOMODULATORS” (Bristol-Myers Squibb Company, priority 2022, published 2026).
*1 amine or outer side, *2 acyl side, *3 side chain or, on linkers, in order; H or OH if unused. Where a SMILES comes first, the peptide text is derived from it. Bridges are numbered along the chain shown (N, C = ends). [ ]: non-standard residue; d: D form. The star is where a group is joined. ξ: configuration not given here. Phe(4-CF3) = N[C@@H](Cc1ccc(C(F)(F)F)cc1)C(=O)O; Phe(4-COOH) = N[C@@H](Cc1ccc(C(=O)O)cc1)C(=O)O; Bip = N[C@@H](Cc1ccc(-c2ccccc2)cc1)C(=O)O; Phe(3-Me) = Cc1cccc(C[C@H](N)C(=O)O)c1; γGlu = O=C(O)[C@H](CCC(=O)[*:2])N[*:1]; NH(CH2)12COOH = O=C(O)CCCCCCCCCCCCN*; Val(3-OH) = CC(C)(O)[C@H](N)C(=O)O; hArg = N=C(N)NCCCC[C@H](N)C(=O)O; 4Pal = N[C@@H](Cc1ccncc1)C(=O)O; X1 = O=C(CN1CCN([*:1])CC1)[*:2]; Cha = N[C@@H](CC1CCCCC1)C(=O)O; Cit = NC(=O)NCCC[C@H](N)C(=O)O; Ile(3ξ) = CCC(C)[C@H](N)C(=O)O; Thr(3ξ) = CC(O)[C@H](N)C(=O)O; 12Ado = NCCCCCCCCCCCC(=O)O; Carboxymethyl = O=C(O)C*; NMeA = CN[C@@H](C)C(=O)O; Aun = NCCCCCCCCCCC(=O)O; Dab = NCC[C@H](N)C(=O)O; Dap = NC[C@H](N)C(=O)O; AEEA = NCCOCCOCC(=O)O; Sar = CNCC(=O)O

Each compound was assayed against T1, PD-1/PD-L1 interaction (PE-labeled human PD-L1-Ig binding to Jurkat cell line over-expressing human PD-1) (Homo sapiens, UniProt Q15116) (assay: Jurkat-PD-1 Cell Binding High-Content Screening Assay (CBA)). Conditions: Jurkat-hPD-1 cells, PE-labeled PD-L1-Ig 20 nM final; read-out: Jurkat HPD1 PDL1 IC50.
T1 construct: expressed in transfected cells; host or cells: Jurkat
Method in brief: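 Binding of 20 nM (final) PE-tagged PD-L1-Ig to compound-pretreated Jurkat-hPD-1 cells was measured by high-content imaging after 1 h. Pretreatment ran 2 h at 37 °C in DMEM with 10% fetal calf serum.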

T1 sequence (Q15116 25-288): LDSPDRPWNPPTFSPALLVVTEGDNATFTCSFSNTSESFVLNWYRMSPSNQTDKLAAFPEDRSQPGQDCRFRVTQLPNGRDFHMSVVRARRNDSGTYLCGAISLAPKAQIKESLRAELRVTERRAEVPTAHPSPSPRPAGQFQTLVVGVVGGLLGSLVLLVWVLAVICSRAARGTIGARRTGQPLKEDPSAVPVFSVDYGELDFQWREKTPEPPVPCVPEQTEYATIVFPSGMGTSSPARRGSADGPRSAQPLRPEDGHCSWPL

SMILES | IC50
Cc1cccc(C[C@@H]2NC(=O)[C@H](CC(=O)O)NC(=O)[C@H](Cc3ccc(C(=O)O)cc3)NC(=O)[C@H]([C@@H](C)O)NC(=O)CSC[C@@H](C(=O)N[C@@H](CCN)C(=O)NCCOCCOCC(=O)NCCOCCOCC(=O)NCCCCCCCCCCCCC(=O)O)NC(=O)[C@H](CCC(=O)O)NC(=O)[C@H](C(C)(C)O)NC(=O)[C@H](CC3CCCCC3)NC(=O)[C@H](CCN)NC(=O)[C@@H](CC(C)C)NC(=O)[C@H](C)N(C)C(=O)[C@H](Cc3ccc(C(=O)O)cc3)NC(=O)[C@H](Cc3ccc(-c4ccccc4)cc3)NC(=O)[C@H](Cc3ccc(C(=O)O)cc3)NC2=O)c1 [Example 1430] ({CH2CO}-T[Phe(4-COOH)]D[Phe(3-Me)][Phe(4-COOH)][Bip][Phe(4-COOH)][NMeA][dL][Dab][Cha][Val(3-OH)]EC[Dab][AEEA][AEEA]-{NH(CH2)12COOH}; thioether N-14) | 42.7 nM
CC(C)C[C@@H]1NC(=O)[C@H](Cc2c[nH]c3ccccc23)NC(=O)[C@H](CC(=O)O)NC(=O)[C@H](Cc2ccc(OCC(=O)O)cc2)NC(=O)[C@H](Cc2ccccc2)NC(=O)CSC[C@@H](C(=O)N[C@@H](CCCCN)C(=O)NCCCCCCCCCCC(=O)O)NC(=O)[C@H](CN)NC(=O)[C@H](C(C)C)NC(=O)[C@H](CC(C)C)NC(=O)[C@H](CC(N)=O)NC(=O)[C@@H](CC(C)C)NC(=O)[C@H](C)N(C)C(=O)[C@H](C(C)C)NC(=O)[C@H](Cc2ccc(-c3ccccc3)cc2)NC1=O [Example 1350] ({CH2CO}-FY(Carboxymethyl)DWL[Bip]V[NMeA][dL]NLV[Dap]CK[Aun]-OH; thioether N-14) | 119 nM
Cc1cccc(C[C@@H]2NC(=O)[C@H](CC(=O)O)NC(=O)[C@H](Cc3ccc(C(=O)O)cc3)NC(=O)[C@H](Cc3ccncc3)NC(=O)CSC[C@@H](C(=O)N[C@@H](CCN)C(=O)NCCOCCOCC(=O)NCCCCCCCCCCCCC(=O)O)NC(=O)[C@H](CO)NC(=O)[C@H](C(C)(C)O)NC(=O)[C@H](CC3CCCCC3)NC(=O)[C@H](CCN)NC(=O)[C@@H](CC(C)C)NC(=O)[C@H](C)N(C)C(=O)[C@H](Cc3ccc(OCC(=O)O)cc3)NC(=O)[C@H](Cc3ccc(-c4ccccc4)cc3)NC(=O)[C@H](Cc3ccc(OCC(=O)O)cc3)NC2=O)c1 [Example 1434] ({CH2CO}-[4Pal][Phe(4-COOH)]D[Phe(3-Me)]Y(Carboxymethyl)[Bip]Y(Carboxymethyl)[NMeA][dL][Dab][Cha][Val(3-OH)]SC[Dab][AEEA]-{NH(CH2)12COOH}; thioether N-14) | 915 nM
Cc1cccc(C[C@@H]2NC(=O)[C@H](CC(=O)O)NC(=O)[C@H](Cc3ccc(OCC(=O)O)cc3)NC(=O)[C@H](C(C)O)NC(=O)CSC[C@@H](C(=O)N(C)CC(=O)NCCCCCCCCCCC(=O)O)NC(=O)[C@H](CCCNC(N)=O)NC(=O)[C@H](C(C)C)NC(=O)[C@H](CC3CCCCC3)NC(=O)[C@H](CCN)NC(=O)[C@@H](CC(C)C)NC(=O)[C@H](C)N(C)C(=O)[C@H](C(C)C)NC(=O)[C@H](Cc3ccc(-c4ccccc4)cc3)NC(=O)[C@H](C(C)C)NC2=O)c1 (stereo partly drawn) [Example 2259] ({CH2CO}-[Thr(3ξ)]Y(Carboxymethyl)D[Phe(3-Me)]V[Bip]V[NMeA][dL][Dab][Cha]V[Cit]C[Sar][Aun]-OH; thioether N-14) | 11.4 nM
Cc1cccc(C[C@@H]2NC(=O)[C@H](CC(=O)O)NC(=O)[C@H](Cc3ccc(C(=O)O)cc3)NC(=O)[C@H](Cc3ccc(OCC(=O)O)cc3)NC(=O)CSC[C@@H](C(=O)NCC(=O)N[C@@H](CCC(=O)O)C(=O)NCCOCCOCC(=O)N[C@@H](CCC(=O)NCCCCCCCCCCC(=O)O)C(=O)O)NC(=O)[C@H](CO)NC(=O)[C@H](C(C)C)NC(=O)[C@H](CC(C)C)NC(=O)[C@H](CC(N)=O)NC(=O)[C@@H](CC(C)C)NC(=O)[C@H](C)N(C)C(=O)[C@H](C(C)C)NC(=O)[C@H](Cc3ccc(-c4ccccc4)cc3)NC(=O)[C@H](CC(C)C)NC2=O)c1 [Example 1013] ({CH2CO}-Y(Carboxymethyl)[Phe(4-COOH)]D[Phe(3-Me)]L[Bip]V[NMeA][dL]NLVSCGE[AEEA][γGlu][Aun]-OH; thioether N-14) | 36.5 nM
CC(C)C[C@@H]1NC(=O)[C@H](Cc2c[nH]c3ccccc23)NC(=O)[C@H](CC(=O)O)NC(=O)[C@H](Cc2ccncc2)NC(=O)[C@H](Cc2ccc(OCC(=O)O)cc2)NC(=O)CSC[C@@H](C(=O)N2CCN(CC(=O)NCCCCCCCCCCC(=O)O)CC2)NC(=O)[C@H](CCCNC(N)=O)NC(=O)[C@H](C(C)C)NC(=O)[C@H](CC2CCCCC2)NC(=O)[C@H](CCN)NC(=O)[C@@H](CC(C)C)NC(=O)[C@H](C)N(C)C(=O)[C@H](C(C)C)NC(=O)[C@H](Cc2ccc(-c3ccccc3)cc2)NC1=O [Example 1220] ({CH2CO}-Y(Carboxymethyl)[4Pal]DWL[Bip]V[NMeA][dL][Dab][Cha]V[Cit]C[X1][Aun]-OH; thioether N-14) | 182 nM

Next, values leading:

IC50 | SMILES
67.1 nM | Cc1cccc(C[C@@H]2NC(=O)[C@H](CC(=O)O)NC(=O)[C@H](Cc3ccc(C(=O)O)cc3)NC(=O)[C@H](Cc3ccc(OCC(=O)O)cc3)NC(=O)CSC[C@@H](C(=O)NCCOCCOCC(=O)NCCCCCCCCCCCC(=O)O)NC(=O)[C@H](CCCCN)NC(=O)[C@H](C(C)C)NC(=O)[C@H](CC3CCCCC3)NC(=O)[C@H](Cc3cnc[nH]3)NC(=O)[C@@H](CC(C)C)NC(=O)[C@H](C)N(C)C(=O)[C@H](CCCNC(N)=O)NC(=O)[C@H](Cc3ccc(-c4ccccc4)cc3)NC(=O)[C@H](C(C)C)NC2=O)c1 [Example 2367] ({CH2CO}-Y(Carboxymethyl)[Phe(4-COOH)]D[Phe(3-Me)]V[Bip][Cit][NMeA][dL]H[Cha]VKC[AEEA][12Ado]-OH; thioether N-14)
83.7 nM | CCC(C)[C@@H]1NC(=O)[C@H](Cc2ccc(-c3ccccc3)cc2)NC(=O)[C@H](CC(C)C)NC(=O)[C@H](Cc2c[nH]c3ccccc23)NC(=O)[C@H](CC(=O)O)NC(=O)[C@H](Cc2ccc(OCC(=O)O)cc2)NC(=O)[C@H](CCCCNC(=N)N)NC(=O)CSC[C@@H](C(=O)N[C@@H](CCN)C(=O)NCCOCCOCC(=O)NCCCCCCCCCCC(=O)O)NC(=O)[C@H](CCCCN)NC(=O)[C@H](C(C)C)NC(=O)[C@H](CC2CCCCC2)NC(=O)[C@H](CCN)NC(=O)[C@H]2CCCN2C(=O)[C@H](C)N(C)C1=O (stereo partly drawn) [Example 2206] ({CH2CO}-[hArg]Y(Carboxymethyl)DWL[Bip][Ile(3ξ)][NMeA][dP][Dab][Cha]VKC[Dab][AEEA][Aun]-OH; thioether N-14)
9.9 nM | CC(C)C[C@@H]1NC(=O)[C@H](Cc2c[nH]c3ccccc23)NC(=O)[C@H](CC(=O)O)NC(=O)[C@H](Cc2ccc(C(=O)O)cc2)NC(=O)[C@H](Cc2ccc(OCC(=O)O)cc2)NC(=O)CSC[C@@H](C(=O)N[C@@H](CCN)C(=O)NCCOCCOCC(=O)NCCCCCCCCCCC(=O)O)NC(=O)[C@H](CCCCN)NC(=O)[C@H](C(C)C)NC(=O)[C@H](CC2CCCCC2)NC(=O)[C@H](CCN)NC(=O)[C@@H](C)NC(=O)[C@H](C)N(C)C(=O)[C@H](C(C)C)NC(=O)[C@H](Cc2ccc(-c3ccccc3)cc2)NC1=O [Example 2207] ({CH2CO}-Y(Carboxymethyl)[Phe(4-COOH)]DWL[Bip]V[NMeA][dA][Dab][Cha]VKC[Dab][AEEA][Aun]-OH; thioether N-14)
40.4 nM | CC(C)C[C@@H]1NC(=O)[C@H](Cc2c[nH]c3ccccc23)NC(=O)[C@H](CC(=O)O)NC(=O)[C@H](Cc2ccc(OCC(=O)O)cc2)NC(=O)[C@H](Cc2ccc(OCC(=O)O)cc2)NC(=O)CSC[C@@H](C(=O)NCCOCCOCC(=O)NCCCCCCCCCCC(=O)O)NC(=O)[C@H](CO)NC(=O)[C@H](C(C)(C)O)NC(=O)[C@H](CC2CCCCC2)NC(=O)[C@H](CCN)NC(=O)[C@@H](CC(C)C)NC(=O)[C@H](C)N(C)C(=O)[C@H](C(C)C)NC(=O)[C@H](Cc2ccc(-c3ccccc3)cc2)NC1=O [Example 2444] ({CH2CO}-Y(Carboxymethyl)Y(Carboxymethyl)DWL[Bip]V[NMeA][dL][Dab][Cha][Val(3-OH)]SC[AEEA][Aun]-OH; thioether N-14)

Same assay, conditions: PE-labeled PD-L1-Ig 20 nM final, Jurkat-hPD-1 cells; read-out: Jurkat HPD1 PDL1 IC50

IC50 | SMILES
13.5 nM | CCC(C)[C@@H]1NC(=O)[C@H](Cc2ccc(-c3ccccc3)cc2)NC(=O)[C@H](C(C)C)NC(=O)[C@H](Cc2c[nH]c3ccccc23)NC(=O)[C@H](CC(=O)O)NC(=O)[C@H](Cc2ccc(OCC(=O)O)cc2)NC(=O)[C@H](Cc2ccc(OCC(=O)O)cc2)NC(=O)CSC[C@@H](C(=O)N[C@@H](CCN)C(=O)NCCOCCOCC(=O)NCCCCCCCCCCC(=O)O)NC(=O)[C@H](CCCNC(N)=O)NC(=O)[C@H](C(C)(C)O)NC(=O)[C@H](CC2CCCCC2)NC(=O)[C@H](Cc2cnc[nH]2)NC(=O)[C@@H](CC(C)C)NC(=O)[C@H](C)N(C)C1=O (stereo partly drawn) [Example 2587] ({CH2CO}-Y(Carboxymethyl)Y(Carboxymethyl)DWV[Bip][Ile(3ξ)][NMeA][dL]H[Cha][Val(3-OH)][Cit]C[Dab][AEEA][Aun]-OH; thioether N-14)
21.3 nM | Cc1cccc(C[C@@H]2NC(=O)[C@H](CC(=O)O)NC(=O)[C@H](Cc3ccc(C(=O)O)cc3)NC(=O)[C@H](C)NC(=O)CSC[C@@H](C(=O)N[C@@H](CCN)C(=O)NCCCCCCCCCCC(=O)O)NC(=O)[C@H](C(C)O)NC(=O)[C@H](C(C)C)NC(=O)[C@H](CC3CCCCC3)NC(=O)[C@H](CCN)NC(=O)[C@@H](CC(C)C)NC(=O)[C@H](C)N(C)C(=O)[C@H](Cc3ccc(C(=O)O)cc3)NC(=O)[C@H](Cc3ccc(-c4ccccc4)cc3)NC(=O)[C@H](Cc3ccc(C(F)(F)F)cc3)NC2=O)c1 (stereo partly drawn) [Example 2582] ({CH2CO}-A[Phe(4-COOH)]D[Phe(3-Me)][Phe(4-CF3)][Bip][Phe(4-COOH)][NMeA][dL][Dab][Cha]V[Thr(3ξ)]C[Dab][Aun]-OH; thioether N-14)
